Test results reported in the supplement of paper PMC10307832.

Legend:
Test in all cases: relative viability (nuclei count vs DMSO), 5 days (fraction); higher = more cells survive
VX-11e + Alpelisib = compound: CC1=CN=C(N=C1C2=CNC(=C2)C(=O)N[C@H](CO)C3=CC(=CC=C3)Cl)NC4=C(C=C(C=C4)F)Cl [VX-11e] + Cc1nc(NC(=O)N2CCC[C@H]2C(N)=O)sc1-c1ccnc(C(C)(C)C(F)(F)F)c1 [Alpelisib] (partner 2 µM)
Method in brief: (§1)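 Lung cancer cell lines were pin-tool dosed in 1536-well plates on the day after seeding, with either a lone drug or a fixed anchor-drug dose plus five library-drug doses (not always all listed) in √10 steps. Nuclei were counted on 4× images after 5 days. Relative viability is the ratio of treated-well to vehicle-well nuclei counts, with each value a median of duplicate plates.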

VX-11e + Palbociclib = compound: CC1=CN=C(N=C1C2=CNC(=C2)C(=O)N[C@H](CO)C3=CC(=CC=C3)Cl)NC4=C(C=C(C=C4)F)Cl [VX-11e] + CC(=O)c1c(C)c2cnc(Nc3ccc(N4CCNCC4)cn3)nc2n(C2CCCC2)c1=O [Palbociclib] (partner 0.5 µM)
Method in brief: as §1

VX-11e + Pemetrexed = compound: CC1=CN=C(N=C1C2=CNC(=C2)C(=O)N[C@H](CO)C3=CC(=CC=C3)Cl)NC4=C(C=C(C=C4)F)Cl [VX-11e] + Nc1nc2[nH]cc(CCc3ccc(C(=O)N[C@@H](CCC(=O)O)C(=O)O)cc3)c2c(=O)[nH]1 [Pemetrexed] (partner 0.2 µM)
Method in brief: as §1

VX-11e + Olaparib = compound: CC1=CN=C(N=C1C2=CNC(=C2)C(=O)N[C@H](CO)C3=CC(=CC=C3)Cl)NC4=C(C=C(C=C4)F)Cl [VX-11e] + O=C(c1cc(Cc2n[nH]c(=O)c3ccccc23)ccc1F)N1CCN(C(=O)C2CC2)CC1 [Olaparib] (partner 8 µM)
Method in brief: as §1

Cell Line | relative viability (VX-11e + Alpelisib; first compound 0.04 µM) | relative viability (VX-11e + Alpelisib; first compound 0.1265 µM) | relative viability (VX-11e + Alpelisib; first compound 0.4 µM) | relative viability (VX-11e + Alpelisib; first compound 1.265 µM) | relative viability (VX-11e + Alpelisib; first compound 4 µM) | relative viability (VX-11e + Palbociclib; first compound 0.04 µM) | relative viability (VX-11e + Palbociclib; first compound 0.1265 µM) | relative viability (VX-11e + Palbociclib; first compound 0.4 µM) | relative viability (VX-11e + Palbociclib; first compound 1.265 µM) | relative viability (VX-11e + Palbociclib; first compound 4 µM) | relative viability (VX-11e + Pemetrexed; first compound 0.04 µM) | relative viability (VX-11e + Pemetrexed; first compound 0.1265 µM) | relative viability (VX-11e + Pemetrexed; first compound 0.4 µM) | relative viability (VX-11e + Pemetrexed; first compound 1.265 µM) | relative viability (VX-11e + Pemetrexed; first compound 4 µM) | relative viability (VX-11e + Olaparib; first compound 0.04 µM) | relative viability (VX-11e + Olaparib; first compound 0.1265 µM) | relative viability (VX-11e + Olaparib; first compound 0.4 µM) | relative viability (VX-11e + Olaparib; first compound 1.265 µM) | relative viability (VX-11e + Olaparib; first compound 4 µM)
NCI-H1755 | 0.962 | 0.885 | 0.882 | 0.931 | 0.497 | 0.429 | 0.404 | 0.45 | 0.43 | 0.417 | 0.449 | 0.326 | 0.409 | 0.424 | 0.396 | 0.903 | 0.853 | 0.874 | 0.942 | 0.747
NCI-H1792 | 0.799 | 0.631 | 0.649 | 0.628 | 0.202 | 0.684 | 0.586 | 0.645 | 0.541 | 0.319 |  | 0.719 |  | 0.343 | 0.0593 |  | 0.541 |  | 0.518 | 0.287
NCI-H1793 |  | 0.519 |  | 0.539 | 0.301 |  | 0.255 |  | 0.28 | 0.232 |  | 0.715 |  | 0.591 | 0.259 |  | 0.788 |  | 0.751 | 0.313
NCI-H1915 | 1.08 | 0.973 | 1.08 | 0.978 | 0.652 | 0.546 | 0.465 | 0.481 | 0.433 | 0.217 | 0.484 | 0.509 | 0.477 | 0.381 | 0.388 | 0.277 | 0.23 | 0.305 | 0.225 | 0.231
NCI-H1944 | 0.843 | 0.809 | 0.785 | 0.557 | 0.399 | 0.323 | 0.343 | 0.338 | 0.264 | 0.205 | 0.602 | 0.77 | 0.382 | 0.505 | 0.374 | 0.405 | 0.417 | 0.376 | 0.345 | 0.328
NCI-H1975 | 0.649 | 0.639 | 0.591 | 0.508 | 0.191 | 0.543 | 0.411 | 0.169 | 0.391 | 0.17 | 0.307 | 0.276 | 0.295 | 0.27 | 0.258 | 0.84 | 0.808 | 0.806 | 0.803 | 0.31
NCI-H1993 |  | 0.673 |  | 0.618 | 0.649 |  | 0.708 | 0.607 | 0.559 | 0.503 |  | 0.537 | 0.457 | 0.58 | 0.521 |  | 1.13 | 0.895 | 0.879 | 0.785
NCI-H2009 | 1.2 | 1.1 | 1.07 | 0.571 | 0.285 | 0.177 | 0.171 | 0.187 | 0.158 | 0.0988 | 1.08 | 1.03 | 1.12 | 1.1 | 0.673 | 0.684 | 0.635 | 0.805 | 0.769 | 0.378
NCI-H2023 | 0.59 | 0.611 | 0.572 | 0.458 | 0.257 | 0.336 | 0.338 | 0.251 | 0.203 | 0.111 | 0.224 | 0.241 | 0.225 | 0.145 | 0.157 | 0.541 | 0.45 | 0.507 | 0.475 | 0.346
NCI-H2085 | 1.11 | 0.88 | 0.913 | 0.842 | 0.699 | 0.498 | 0.437 | 0.457 | 0.404 | 0.366 | 0.862 | 0.873 | 0.81 | 0.635 | 0.583 | 0.835 | 0.758 | 0.709 | 0.706 | 0.598
NCI-H2087 | 1.09 | 1.06 | 0.946 | 0.983 | 0.276 | 0.203 | 0.244 |  | 0.176 | 0.176 | 0.691 | 0.613 |  | 0.64 | 0.544 | 0.646 | 0.659 |  | 0.531 | 0.252
NCI-H2126 |  | 0.755 | 0.747 | 0.68 | 0.578 | 0.331 | 0.379 | 0.359 | 0.353 | 0.318 | 0.554 | 0.621 | 0.399 | 0.567 | 0.517 | 0.885 | 0.874 | 0.864 | 0.879 | 0.751
NCI-H2170 | 0.76 | 0.71 | 0.758 | 0.719 | 0.71 | 0.354 | 0.386 | 0.381 | 0.339 | 0.424 | 0.222 | 0.254 | 0.232 | 0.247 | 0.254 | 0.635 | 0.662 | 0.603 | 0.629 | 0.534
NCI-H2228 | 0.631 | 0.922 | 0.715 | 0.548 | 0.232 | 0.832 | 0.731 | 0.165 | 0.528 | 0.199 | 0.337 | 0.371 | 0.363 | 0.311 | 0.183 | 0.681 | 0.631 | 0.362 | 0.417 | 0.21
NCI-H2347 | 1.15 | 0.991 | 1 | 0.618 | 0.379 | 0.475 | 0.405 | 0.481 | 0.398 | 0.379 | 0.412 | 0.442 | 0.423 | 0.389 | 0.368 | 0.585 | 0.6 | 0.636 | 0.518 | 0.36
NCI-H2405 | 0.857 | 0.726 |  | 0.602 | 0.209 | 0.579 | 0.506 | 0.385 | 0.513 | 0.328 | 1.09 | 0.957 | 0.678 | 0.989 | 0.501 | 0.961 | 0.814 | 0.333 | 0.873 | 0.379
NCI-H3122 | 0.652 | 0.753 | 0.566 | 0.672 | 0.329 | 0.211 | 0.164 | 0.168 | 0.166 | 0.135 | 0.202 | 0.205 | 0.162 | 0.171 | 0.152 | 0.717 | 0.661 | 0.689 | 0.558 | 0.468
